# In patent US7550438B2, “Methods for production of growth-promoting proteins and peptides for kidney epithelial cells” (The University of Chicago, priority 1997, dated 2009):
# Several values for one entry are separate records, joined by “and”; a condition that tells them apart may be missing. Equal values may be shown once. Entries after “also recorded” stand apart in the source; their conditions may differ. Read-outs that look alike come from different tables or passages of the source. No end group written: not given here.
# B1: TGF-β2: autocrine growth inhibitor secreted by BSC-1 cells (protein, UniProt P61811 303-414, looked up)
# Transforming growth factor …: ALDAAYCFRNVQDNCCLRPLYIDFKRDLGWKWIHEPKGYNANFCAGACPYLWSSDTQHSRVLSLYNTINPEASASPCCVSQDLEPLTILYYIGKTPKIEQLSNMIVKSCKCS
# Legend:
# [1] = tested on: BSC-1 cells; assay: Time of contact with cells required to commit them to accelerated growth (washout, count at four days); assay type: cell-based, African green monkey; settings: for exposure time sufficient for maximal growth stimulation (commitment time): peptide then washed off, cells counted four days later
# Method: Confluent monolayers of BSC-1 cells are prepared as herein and exposed to the 14-Ser peptide (0.5 μg/ml) for different amounts of time (0 to 30 minutes). At the end of the defined exposure period, culture medium containing the mitogen was aspirated, the monolayer was rinsed to remove non-adherent peptide, and fresh medium was added. Four days later the number of cells in the culture was counted.
# In these experiments a solution containing the peptide of interest was added to the cell monolayer; culture medium was then aspirated at a specified time thereafter. Then fresh medium without the peptide was added and the number of cells was counted four days later.
# [2] = tested on: monkey kidney epithelial cells of the BSC-1 line; assay: Growth-promoting (mitogenic) activity: number of cells in BSC-1 cultures counted four days after addition; assay type: cell-based, African green monkey; settings: for stimulation of growth (increase in cell number compared to control at four days): agent alone at maximal mitogenic concentration (14-Ser 0.5 μg/ml; EGF, IGF-I 50 ng/ml; acidic FGF 100 pg/ml; basic FGF 1,000 pg/ml; vasopressin 75 pg/ml; K 10.4 mM; Na 180 mM); for stimulation of growth in the presence of the 14-Ser peptide: mitogenic signal at maximal concentration plus 14-Ser peptide 0.5 μg/ml; for stimulation of growth in the presence of the 14-Ser peptide / mitogenic activity on BSC-1 cells (in words): four days; for EC50: read-out: Growth-Stimulation K½; for mitogenic activity on BSC-1 cells (in words): peptide 0.5 to 20 μg/ml
# Method: For the assay, cells were detached from the dish with a solution of trypsin and an aliquot was counted in a hemocytometer.
# Nontransformed monkey kidney epithelial cells of the BSC-1 line were grown to confluence in Dulbecco's modified Eagle's medium containing 1% calf serum and […] in 55-mm culture dishes at 38° C. in a CO2 incubator. When cells achieved a density of about 10^6 per dish, the spent medium was removed and replaced with fresh medium containing 0.5% calf serum and the 14-amino acid peptide (0.5 μg/ml). Additions of each of the mitogenic signals at maximal concentration were made to the culture medium. Four days later the number of cells in each culture was counted in a hemocytometer. Values obtained were the mean of 3 separate cultures.
# Nontransformed monkey kidney epithelial cells of the BSC-1 line were grown to confluence in Dulbecco's modified Eagle's medium containing 1% calf serum and 1.6 μM biotin at 38° C. in a CO2 incubator. When cells achieved a density of about 10^6 per dish, the spent medium was removed and replaced with fresh medium containing 0.5% calf serum and different amounts of the two peptides. Four days later the number of cells in each culture was counted. Each value is the mean of 3 separate cultures.
# To delineate the sequence of the smallest peptide that could stimulate renal cell growth, synthetic peptides of different lengths were prepared (see below), and purified by reversed-phase HPLC on a C18 column.
# The peptide of interest was then purified on a reversed-phase C18 column HPLC as described herein using a gradient of 1-80% acetonitrile in 0.1% trifluroacetic acid (TFA). The purified peptide was then lyophilized to remove the acetonitrile and TFA and the lyophilized powder was weighed, dissolved in buffer and added to the culture medium to measure its effect on the growth of monkey kidney epithelial cells as described herein. […] A value termed the K1/2, was used.
# [3] = tested on: rats with mercuric chloride-induced acute renal failure; assay: Mercuric chloride-induced acute renal failure in rats: survival and renal function; assay type: in vivo, rat
# Text: Nephrotoxic and ischemic acute renal failure (ARF) induced experimentally in rats have long been used to model this syndrome in humans. […] Male rats weighed 200-225 gm at the start of the experiment. This dose was used because preliminary experiments indicated it results in survival of 25-50% of the animals 7 days later. […] An increase in serum creatinine concentration signals a decline in renal function because the injured kidney is unable to excrete endogenous creatinine in the urine so it accumulates in the blood.
# The synthetic peptide […] (14-Ser) (SEQ ID NO: 15) (dissolved in sterile 0.01% bovine serum albumin in phosphate-buffered saline) was injected subcutaneously into rats to determine its effect on survival, recovery of renal fucntion, and stimulation of DNA synthesis. Multiple different peptides were studied including 14-Ser, […] (14-mer) (SEQ ID NO: 39), […] (16-mer) (SEQ ID NO: 4) […] (11-mer) (SEQ ID NO: 6), and […] (11-mer) (SEQ ID NO: 41). Different concentrations and times of administration were tested and compared.
# Acute tubular necrosis was induced in 44 rats by the subcutaneous (s.c.) injection of mercuric chloride, and a single dose of 14-ser was administered s.c. 1 hour afterwards. Different amounts of the peptide were given to assesses its capacity to affect the outcome. Survival 7 days later was about twice as high in animals given 100-150 μg of peptide (63%) than in rats given 0-75 μg peptide (29%).
# To determine the effect of the peptide on survival and recovery of renal function, acute tubular necrosis was induced in 59 rats; 29 received 14-Ser (100 μg/rat) and 30 received an equal volume of the vehicle s.c. 1 hour after administration of mercuric chloride. Enhanced survival (top panel) and renal functional recovery (bottom panel) of rats give a WGF-derived peptide after mercuric chloride-induced acute tubular necrosis are shown in FIG. 2A and FIG. 2B. Mercuric chloride was injected subcutaneously into each of the 59 rats, and 1 hour later 100 μg of WGF peptide (14-Ser) (n=29 rats) or the vehicle […] was given. Survival was greater in rats given the peptide than in animals receiving the vehicle as early as day 3 after administration of mercuric chloride. Blood was obtained from the tail vein on the days indicated, and serum creatinine concentration was measured. […] On days 2, 3 and 4, the lower creatinine concentration in peptide-treated rats indicates accelerated recovery of kidney function.
# Experimental ARF was induced in rats by subcutaneous injection of mercuric chloride. The synthetic peptide […] […] In one experiment a total of 17 rats were injected with a dose of mercuric chloride shown to induce ARF. The different amounts of the peptide (known to stimulate growth of kidney cells in culture) were injected into the animals to assess capacity to improve the outcome. […] In contrast, two of three rats given 100 micrograms of peptide were alive, as were five of six given 200 micrograms. In summary, none of eight rats (0%) given up to 50 micrograms of peptide survived, whereas seven of nine (78%) given 100-200 micrograms did. Thus, the 11-mer WGF peptide improves survival in nephrotoxic ARF.
# […] Four days later, 63% of rats given the 14-Ser peptide were alive compared to 25% of animals receiving the vehicle (chi squared, P-0.0499); 50% of rats receiving EGF were alive (chi squared, P=N.S.). On day 5, 50% of rats given EGF were alive, compared to 12.5% of animals given the vehicle (chi squared, P=0.0436). […] These observations indicate that the 14-Ser peptide and EGF given after renal injury are similar in their ability to improve survival from the ARF syndrome.
# [4] = tested on: BSC-1 cells; assay: Inhibition of WGF and WGF-derived peptide mitogenesis in BSC-1 cells; assay type: cell-based, African green monkey; settings: for effect of pentamer on growth stimulation by hexamer YPQGNH: pentamer added to culture medium, hexamer added at the same time or afterwards
# Text: In these studies the pentamers, PQGNH (SEQ ID NO: 36) or YPQGN (SEQ ID NO: 3) were synthesized, purified by HPLC and then assayed for growth-promoting activity. […] Because the pentamers are not mitogenic, when they bind to the site, growth is not observed. After pentamers are bound to the site, the pentamers appear to prevent the hexapeptide from gaining access to the membrane.
# Transforming growth factor (TGF)-β2 is an autocrine growth inhibitor secreted by BSC-1 cells that limits proliferation in culture. Exogenous TGF-β2 was added to the culture medium to determine its capacity to inhibit the growth-promoting effect of 14-Ser. TGF-β2 at a concentration of 1 ng/ml was sufficient to abolish the 25% stimulation of growth induced by 14-Ser. At a TGF-β2 concentration of 2 ng/ml, growth was inhibited by 30% in the presence or absence of 14-Ser; at 10 ng/ml, inhibition was 60%.
# Because TGF-β2 inhibits proliferation induced by diverse mitogens, a more specific inhibitor was sought. […] Cells were preincubated for 30 minutes with the pentapeptide YPQGN (SEQ ID NO: 3). The culture medium was then aspirated, the monolayer was rinsed, fresh medium was added, and the number of cells counted 4 days later. Preincubation of cells with YPQGN (SEQ ID NO: 3) inhibited the mitogenic effect of the 6-amino acid peptide.
# [5] = peptide alone, BSC-1 cells, 4 days in culture
molecule,measurement,setting,value
"Nc1ncnc2c1ncn2[C@@H]1O[C@H](COP(=O)(O)O)[C@@H](O)[C@H]1O [adenosine monophosphate, reference compound]",commitment time,[1],14 h
"[Cl-].[K+] [potassium chloride, reference compound]",stimulation of growth (increase in cell number compared to control at four days),[2],18%
same,stimulation of growth in the presence of the 14-Ser peptide,[2],35%
"[Cl-].[Na+] [sodium chloride, reference compound]",stimulation of growth (increase in cell number compared to control at four days),[2],25%
same,stimulation of growth in the presence of the 14-Ser peptide,[2],41%
"NC(=O)CC[C@@H]1NC(=O)[C@H](Cc2ccccc2)NC(=O)[C@H](Cc2ccc(O)cc2)NC(=O)[C@@H](N)CSSC[C@@H](C(=O)N2CCC[C@H]2C(=O)N[C@@H](CCCN=C(N)N)C(=O)NCC(N)=O)NC(=O)[C@H](CC(N)=O)NC1=O [vasopressin, reference compound]",exposure time sufficient for maximal growth stimulation (commitment time),[1],2 min
same,stimulation of growth (increase in cell number compared to control at four days),[2],14%
same,stimulation of growth in the presence of the 14-Ser peptide,[2],36%
AQPYPEGNHEA,rats dead three days later,[3]; 50 micrograms s.c. two hours after mercuric chloride,three of three
same,survival three days later,"[3]; 100-200 micrograms of peptide, nine rats",78%
same,rats alive three days later,[3]; 100 micrograms s.c. two hours after mercuric chloride,two of three
same,rats alive three days later,[3]; 200 micrograms s.c. two hours after mercuric chloride,five of six
same,survival three days later,"[3]; up to 50 micrograms of peptide (incl. saline alone), eight rats",0%
same,EC50,[2]; [5],0.206 µM
AQPYPEGNHEASYG,EC50,[2]; [5],0.128 µM
AQPYPQGNHEAAYG,EC50,"[2]; + keratan sulfate (2 μg/ml for 5 minutes prior to peptide, b158; 10 μg/ml)",0.054 µM
same,EC50,[2]; [5],0.199 µM
AQPYPQGNHEAQPYPQGNHEAQPYPQGNHEAQPYPQGNHE,exposure time sufficient for maximal growth stimulation (commitment time),[1],behaved similarly
same,EC50,[2]; [5],0.007 µM
AQPYPQGNHEATSSSF,EC50,[2]; [5],0.218 µM
FPEGNH,EC50,[2]; [5],2.72 µM
"MAPS peptide: 11-mer AQPYPQGNHEA linked to a branched polylysine core, four branches each ligated to one 11-mer molecule (also: four copies linked to a branched polylysine core (MAPS))",mitogenic activity on BSC-1 cells (in words),[2],stimulated DNA synthesis and proliferation
PQGNH,mitogenic activity on BSC-1 cells (in words),[2],Neither was mitogenic; also recorded: do not alter growth
same,effect of pentamer on growth stimulation by hexamer YPQGNH,[4],blocked
Pentosan polysulfate [reference compound],effect on activity of WGF,[4],blocked
QPYPQG,mitogenic activity on BSC-1 cells (in words),[2],not mitogenic
"WAVGHLM [WAVGHLM-amide, reference compound]",EC50,[2]; [5],~10 µM
YPEGDH,EC50,[2]; [5],11 µM
YPEGKH,EC50,[2]; [5],14.1 µM
YPEGNH,exposure time for maximal mitogenic effect after keratan sulfate pretreatment,[1]; cells exposed to keratan sulfate 2 μg/ml for 5 minutes before peptide,1.5 min
same,exposure time sufficient for maximal growth stimulation (commitment time),[1],3 min
same,EC50,[2]; [5],0.301 µM
YPQGN,mitogenic activity on BSC-1 cells (in words),[2],Neither was mitogenic; also recorded: do not alter growth
same,effect of preincubation on mitogenic effect of partially-purified Wound Growth Factor,[4],completely abolished
same,effect of preincubation on mitogenic effect of the 6-amino acid peptide YPQGNH,"[4]; cells preincubated 30 minutes, rinsed, count 4 days later",inhibited
same,effect of pentamer on growth stimulation by hexamer YPQGNH,[4],blocked
same,effect of preincubation on growth-promoting effect of the 14-Ser peptide,[4]; preincubation for 10 or 30 minutes,completely blocked
YPQGNH [NH2-tyrosine-proline-glutamine-glycine-asparagine-histidine-COOH],EC50,[2]; [5],0.352 µM and 0.332 µM
YPQGNH [YPQGNH-amide],EC50,[2]; [5],8.85 µM
YPQGNHEASYG,EC50,[2]; + heparin (1 μg/ml),0.166 µM
same,EC50,[2]; [5],0.166 µM
YPRGNH [reference compound],stimulation of growth (increase in cell number compared to control at four days),[2],10%
same,mitogenic activity on BSC-1 cells (in words),[2],not mitogenic to the same extent
"acidic fibroblast growth factor [acidic FGF, reference compound]",concentration equivalent in mitogenic potency to partially-purified WGF,[2],0.02 ng/mL
same,effect of keratan sulfate on mitogenic activity,[2],no effect
same,stimulation of growth (increase in cell number compared to control at four days),[2],17%
same,effect of heparin on mitogenic activity,[2]; heparin added to BSC-1 cells with the factor,inhibits
same,combined mitogenic effect with WGF (additivity),"[2]; maximal concentrations, 11-mer with wound conditioned buffer",additive
same,stimulation of growth in the presence of the 14-Ser peptide,[2],44%
"insulin-like growth factor-I [IFG-I, reference compound]",stimulation of growth (increase in cell number compared to control at four days),[2],20%
same,stimulation of growth in the presence of the 14-Ser peptide,[2],38%
B1,effect on the 25% stimulation of growth induced by 14-Ser,[4]; TGF-β2 1 ng/ml,abolish
same,growth inhibition,"[4]; TGF-β2 2 ng/ml, in the presence or absence of 14-Ser",30%
same,growth inhibition,[4]; TGF-β2 10 ng/ml,60%
